Measured values from US10344039B2, “Macrocyclic spirocarbamate derivatives as factor XIa inhibitors, pharmaceutically acceptable compositions and their use” (MERCK SHARP & DOHME CORP., priority 2015, dated 2019).

molecular target: T1, purified human Factor XIa (Homo sapiens, UniProt P03951); assay: Factor XIa Assay; type: biochemical; settings: purified human Factor XIa 40 pM; substrate Z-Gly-Pro-Arg-AFC 100 μM; 50 mM HEPES pH 7.4; read-out: Hu FXIa Ki
T1 construct: purified human Factor XIa; purchased Sekisui Diagnostics
Procedure: The effectiveness of a compound of the present invention as an inhibitor of Coagulation Factor XIa can be determined using a relevant purified serine protease, and an appropriate synthetic substrate. The rate of hydrolysis of the chromogenic or fluorogenic substrate by the relevant serine protease was measured both in the absence and presence of compounds of the present invention. Assays were conducted at room temperature or at 37° C. […] A decrease in the rate of fluorescence change in the presence of inhibitor is indicative of enzyme inhibition. Such methods are known to one skilled in the art. The results of this assay are expressed as the inhibitory constant, Ki.
Factor XIa determinations were made in 50 mM HEPES buffer at pH 7.4 containing 150 mM NaCl, 5 mM CaCl2, and 0.1% PEG 8000 (polyethylene glycol; JT Baker or Fisher Scientific). Determinations were made using purified human Factor XIa at a final concentration of 40 pM (Sekisui Diagnostics) and he synthetic substrate, Z-Gly-Pro-Arg-AFC, TFA salt (Sigma #C0980) at a concentration of 100 μM.
Activity assays were performed by diluting a stock solution of substrate at least tenfold to a final concentration ≤0.1 Km into a solution containing enzyme or enzyme equilibrated with inhibitor. Times required to achieve equilibration between enzyme and inhibitor were determined in control experiments. Initial velocities of product formation in the absence (Vo) or presence of inhibitor (Vi) were measured. Assuming competitive inhibition, and that unity is negligible compared Km/[S], [I]/e, and [I]/e (where [S], [I], and e respectively represent the total concentrations, of substrate, inhibitor and enzyme), the equilibrium constant (Ki) for dissociation of the inhibitor from the enzyme can be obtained from the dependence of Vo/Vi on [I] shown in the following equation. Vo/Vi=1+[I]/Ki
The activities shown by this assay indicate that the compounds of the invention may be therapeutically useful for treating or preventing various cardiovascular and/or cerebrovascular thromboembolic conditions in patients suffering from unstable angina, acute coronary syndrome, refractory angina, myocardial infarction, transient ischemic attacks, atrial fibrillation, stroke such as thrombotic stroke or embolic stroke, venous thrombosis, coronary and cerebral arterial thrombosis, cerebral and pulmonary embolism, atherosclerosis, deep vein thrombosis, disseminated intravascular coagulation, and reocclusion or restenosis of recanalized vessels. The Ki values measured for each of the example compounds of the invention using this assay are reported in the tables above (as “Hu FXIa Ki (nM)”).

T1 sequence (P03951 388-625 limits assumed): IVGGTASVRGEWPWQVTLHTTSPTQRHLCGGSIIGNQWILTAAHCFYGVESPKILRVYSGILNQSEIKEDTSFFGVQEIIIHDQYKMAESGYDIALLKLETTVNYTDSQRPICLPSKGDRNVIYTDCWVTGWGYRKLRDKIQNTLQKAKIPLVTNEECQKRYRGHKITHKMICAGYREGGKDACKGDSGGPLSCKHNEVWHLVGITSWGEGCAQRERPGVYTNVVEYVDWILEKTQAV
T1 sequence (P03951 19-387 partner limits assumed): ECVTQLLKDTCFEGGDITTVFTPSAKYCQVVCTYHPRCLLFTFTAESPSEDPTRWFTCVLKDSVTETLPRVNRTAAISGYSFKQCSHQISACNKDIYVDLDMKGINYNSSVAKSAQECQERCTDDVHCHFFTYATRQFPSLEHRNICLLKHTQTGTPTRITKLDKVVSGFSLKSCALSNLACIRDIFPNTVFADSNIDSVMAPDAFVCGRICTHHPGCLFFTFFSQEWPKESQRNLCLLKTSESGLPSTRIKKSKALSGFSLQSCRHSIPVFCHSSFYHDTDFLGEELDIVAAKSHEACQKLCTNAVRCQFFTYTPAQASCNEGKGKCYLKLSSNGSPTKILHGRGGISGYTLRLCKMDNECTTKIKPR

SMILES | Ki [nM]
O=C1CCCC[C@@H](C(=O)N2CCC[C@@]3(C2)OC(=O)Nc2ccc(Cl)cc23)c2nc(c[nH]2)-c2ccc(F)cc2N1 (single isomer, unassigned) [Example 2a] | 268
O=C1CCCC[C@H](C(=O)N2CCC[C@@]3(C2)OC(=O)Nc2ccc(Cl)cc23)c2nc(c[nH]2)-c2ccc(F)cc2N1 (single isomer, unassigned) [Example 2b] | > 5000
COC(=O)Nc1ccc2c(c1)NC(=O)C(C)CCCC(C(=O)N1CCC[C@@]3(C1)OC(=O)Nc1ccc(Cl)cc13)c1cc-2ccn1 (single isomer, unassigned) [Example 15b] | 749
COC(=O)Nc1ccc2c(c1)NC(=O)C(C)CCCC(C(=O)N1CCC[C@@]3(C1)OC(=O)Nc1ccc(Cl)cc13)c1cc-2ccn1 (single isomer, unassigned) [Example 15c] | 1760
COC(=O)Nc1ccc2c(c1)NC(=O)C(C)CCCC(C(=O)N1CCC[C@@]3(C1)OC(=O)Nc1ccc(Cl)cc13)c1cc-2ccn1 (single isomer, unassigned) [Example 15d] | > 5000
Nc1ccc2c(c1)NC(=O)CC/C=C\C[C@H](C(=O)N1CCC[C@@]3(C1)OC(=O)Nc1ccc(Cl)c(F)c13)c1cc-2ccn1 (single isomer, unassigned) [Example 20b] | > 875
O=C1Nc2ccc(Cl)c(F)c2[C@@]2(CCCN(C(=O)C3CCCCC(C(=O)O)Nc4ccc(F)cc4-c4ccnc3c4)C2)O1 (single isomer, unassigned) [Example 35a] | > 875
O=C1Nc2ccc(Cl)c(F)c2[C@@]2(CCCN(C(=O)C3CCCCC(C(=O)O)Nc4ccc(F)cc4-c4ccnc3c4)C2)O1 (single isomer, unassigned) [Example 35b] | > 875
O=C1Nc2ccc(Cl)c(F)c2[C@@]2(CCN(C(=O)C3CCCCC(C(=O)O)Nc4ccc(F)cc4-c4ccnc3c4)C2)O1 (single isomer, unassigned) [Example 37a] | > 875
O=C1Nc2ccc(Cl)c(F)c2[C@@]2(CCN(C(=O)C3CCCCC(C(=O)O)Nc4ccc(F)cc4-c4ccnc3c4)C2)O1 (single isomer, unassigned) [Example 37b] | > 875
O=C1CCCC[C@H](C(=O)N2CC[C@@]3(C2)OC(=O)Nc2ccc(Cl)cc23)c2nc(c[nH]2)-c2ccc(F)cc2N1 [Example 5a, (R)-6-chloro-1′-((S,Z)-2^4-fluoro-4-oxo-1^1H-3-aza-1(4,2)-imidazola-2(1,2)-benzenacyclononaphane-9-carbonyl)spiro[benzo[d][1,3]oxazine-4,3′-pyrrolidin]-2(1H)-one] | > 8750
COC(=O)Nc1ccc2c(c1)NC(=O)CCCC[C@H](C(=O)N1CCC[C@@]3(C1)OC(=O)Nc1ccc(Cl)cc13)c1nc-2c(Cl)[nH]1 [Example 7b, methyl ((S,Z)-1^5-chloro-9-((R)-6-chloro-2-oxo-1,2-dihydrospiro[benzo[d][1,3]oxazine-4,3′-piperidine]-1′-carbonyl)-4-oxo-1^1H-3-aza-1(4,2)-imidazola-2(1,2)-benzenacyclononaphane-2^4-yl)carbamate] | 1830

Now from value to compound:

Ki [nM] | SMILES
258 | COC(=O)Nc1ccc2c(c1)NC(=O)CCCC[C@H](C(=O)N1CC[C@@]3(C1)OC(=O)Nc1ccc(Cl)cc13)c1nc-2c[nH]1 (single isomer, unassigned) [Example 1b]
471 | COC(=O)Nc1ccc2c(c1)NC(=O)CCCC[C@H](C(=O)N1CCC[C@@]3(C1)OC(=O)Nc1ccc(Cl)c(F)c13)c1nc-2c(C)[nH]1 (single isomer, unassigned) [Example 12a]
> 875 | COC(=O)Nc1ccc2c(c1)NC(=O)CCCC[C@H](C(=O)N1CC[C@@]3(C1)OC(=O)Nc1ccc(Cl)c(F)c13)c1cccc-2n1 (single isomer, unassigned) [Example 23a]
143 | CCOC(=O)C1CCCCC(C(=O)N2CCC[C@@]3(C2)OC(=O)Nc2ccc(Cl)c(F)c23)c2nc(c[nH]2)-c2ccc(NC(=O)OC)cc2N1 (single isomer, unassigned) [Example 32a]
536 | CCOC(=O)C1CCCCC(C(=O)N2CCC[C@@]3(C2)OC(=O)Nc2ccc(Cl)c(F)c23)c2nc(c[nH]2)-c2ccc(NC(=O)OC)cc2N1 (single isomer, unassigned) [Example 32c]
> 875 | CCOC(=O)C1CCCCC(C(=O)N2CCC[C@@]3(C2)OC(=O)Nc2ccc(Cl)c(F)c23)c2nc(c[nH]2)-c2ccc(NC(=O)OC)cc2N1 (single isomer, unassigned) [Example 32d]
628 | CCOC(=O)C1CCCCC(C(=O)N2CCC[C@@]3(C2)OC(=O)Nc2ccc(Cl)c(F)c23)c2cc(ccn2)-c2cc(F)ccc2N1 (single isomer, unassigned) [Example 34a]
> 875 | CCOC(=O)C1CCCCC(C(=O)N2CCC[C@@]3(C2)OC(=O)Nc2ccc(Cl)c(F)c23)c2cc(ccn2)-c2cc(F)ccc2N1 (single isomer, unassigned) [Example 34b]
196 | CCOC(=O)C1CCCCC(C(=O)N2CCC[C@@]3(C2)OC(=O)Nc2ccc(Cl)c(F)c23)c2cc(ccn2)-c2cc(F)ccc2N1 (single isomer, unassigned) [Example 34c]
> 875 | CCOC(=O)C1CCCCC(C(=O)N2CCC[C@@]3(C2)OC(=O)Nc2ccc(Cl)c(F)c23)c2cc(ccn2)-c2cc(F)ccc2N1 (single isomer, unassigned) [Example 34d]
> 875 | CCOC(=O)C1CCCCC(C(=O)N2CC[C@@]3(C2)OC(=O)Nc2ccc(Cl)c(F)c23)c2cc(ccn2)-c2cc(F)ccc2N1 (single isomer, unassigned) [Example 36a]
> 875 | CCOC(=O)C1CCCCC(C(=O)N2CC[C@@]3(C2)OC(=O)Nc2ccc(Cl)c(F)c23)c2cc(ccn2)-c2cc(F)ccc2N1 (single isomer, unassigned) [Example 36b]
65 | COC(=O)Nc1ccc2c(c1)NC(=O)CCCC[C@H](C(=O)N1CCC[C@@]3(C1)OC(=O)Nc1ccc(Cl)cc13)c1nc-2c[nH]1 [Example 3b, methyl ((S,Z)-9-((R)-6-chloro-2-oxo-1,2-dihydrospiro[benzo[d][1,3]oxazine-4,3′-piperidine]-1′-carbonyl)-4-oxo-1^1H-3-aza-1(4,2)-imidazola-2(1,2)-benzenacyclononaphane-2^4-yl)carbamate]
195 | COC(=O)Nc1ccc2c(c1)NC(=O)CCCC[C@H](C(=O)N1CC[C@@]3(C1)OC(=O)Nc1ccc(Cl)c(F)c13)c1nc-2c(C)[nH]1 [Example 13a, methyl ((S,Z)-9-((R)-6-chloro-5-fluoro-2-oxo-1,2-dihydrospiro[benzo[d][1,3]oxazine-4,3′-pyrrolidine]-1′-carbonyl)-1^5-methyl-4-oxo-1^1H-3-aza-1(4,2)-imidazola-2(1,2)-benzenacyclononaphane-2^4-yl)carbamate]
217 | COC(=O)Nc1ccc2c(c1)NC(=O)[C@H](C)CCC[C@H](C(=O)N1CCC[C@@]3(C1)OC(=O)Nc1ccc(Cl)c(F)c13)C1=NC=C2O1 [Example 14b, methyl ((5R,9S)-9-((R)-6-chloro-5-fluoro-2-oxo-1,2-dihydrospiro[benzo[d][1,3]oxazine-4,3′-piperidine]-1′-carbonyl)-5-methyl-4-oxo-3-aza-1(5,2)-oxazola-2(1,2)-benzenacyclononaphane-2^4-yl)carbamate]
